According to patent US20150216955A1, “IMMUNOMODULATORY AGENT AND USES THEREFOR” (The University of Queensland, priority 2012, published 2015):
Where a SMILES comes first, the peptide text is derived from it. Where no end group is shown, it is not given here. [ ]: non-standard residue; d: D form. Cit = NC(=O)NCCC[C@H](N)C(=O)O

Tests used:
[1] = tested on: antigen-presenting cells (APC); test: Pre-incubation of APC with NF-kB, mTOR or Syk inhibitors; T cell cytokine production in response to citrullinated aggrecan peptide; type: cell-based, human; conditions: APC pre-incubated 1 h with inhibitor, then LPS; 5 days with CD4+ T cells and 3 or 30 μg/mL Aggrecan peptide 84-103 cit 93
Method: Peripheral blood mononuclear cells (PBMC) were extracted from an RA patient with disease duration 18 years, positive anti-CCP and HLA-DRB1*0401 shared epitope. Autologous CD4+ T cells were isolated using immunomagnetic beads. The non-T cell fraction consists of antigen-presenting cells (APC), including dendritic cells, monocytes and B cells; it was treated with Mitomycin C to prevent proliferation. The APC were pre-incubated for 1 h without or with 3 uM BAY7011-82, 20 μg/mL Curcumin (both inhibit NF-kB), 10 ng/mL Rapamycin (inhibits mTOR) or […] Piceatannol (inhibits syk), then incubated with 100 ng/mL LPS for 1 h. The APC were washed 3 times then incubated for 5 days with CD4+ T cells in the presence of 0 μg/mL, 3 μg/mL or 30 μg/mL Aggrecan peptide 84-103 cit 93. Cytokines were analysed in culture supernatants by cytokine bead array.

[2] = Solubility of peptide in aqueous medium; type: physicochemical
[3] = tested on: PBMC; test: Cytokine secretion in day 5 supernatants by Cytometric Bead Array (CBA) after peptide stimulation; type: cell-based, human; conditions: for cytokine responses to the epitope: current studies, fibrinogen: long-standing RA patients; for number of RA patients with positive IL-6 response to this epitope only: of 17 RA patients, threshold mean + 2 SD above native peptide response
[4] = tested on: CD4+ T cells; test: Flow cytometry and intracellular cytokine staining after peptide stimulation; type: cell-based, human
Method: FIG. 6 is a graphical representation showing cytokine secretion by CD4^+ T cell subsets. PBMC from HLA-DR SE^+ RA patients and healthy controls were incubated with 0 or 30 μg/ml citrullinated fibrinogen or citrullinated aggrecan, stained with mAb directed against CD4, CD28, IFN-γ and IL-6 (A), or CD4, CD45RO, IL-6 and IFN-γ (E) then analyzed by flow cytometry. B: The gating strategy is outlined. C: Fluorescence minus one (FMO) plot showing background staining for intracellular cytokine staining, gated on CD4^+ T cells. D: IL-6 staining of gated CD4^− non-T cells. The proportions in (E) of IL-6^+CD4^+CD45RO^+ T cells were 2.2%, 5.3% and 7.1%, and of IL-6^+CD4^+CD45RO^− T cells were 0.8%, 2.1% and 4% in response to incubation with no peptide, citrullinated fibrinogen and citrullinated aggrecan respectively. Two individual RA patients and 1 healthy control are shown. Data are representative of 2 healthy donors and 5 RA patients.
IL-6 is an important cytokine in RA, which could be produced upon stimulation of PBMC either by T cells or antigen presenting cells. To determine the origin of the cytokines secreted into supernatants of PBMC stimulated by citrullinated peptides, RA PBMC were incubated with citrullinated or native peptides for 5 days, with addition of Brefeldin-A for the last 18 hours, prior to intracellular cytokine staining along with analysis of cell surface markers. CD3^+CD4^+ T cells produced more intra-cellular IFN-γ and IL-6 when incubated with citrullinated aggrecan or fibrinogen relative to incubation in medium alone (FIG. 6A, B). […] In healthy controls, CD28^− cells comprised only a small proportion of the CD4^+ T cells, and cytokine-secreting cells were exclusively CD4^+CD28^+. CD28^− cells were more abundant among CD4^+ PB T cells in some, but not all, RA patients. Where CD4^+CD28^− T cells were present, IL-6 and IFN-γ were secreted by both CD28^− and CD28^+CD4^+ T cells in response to citrullinated peptides. […] IFN-γ^+CD4^+ and IL-6^+CD4^+ T cells included both CD45RO^+ and CD45RO^− cells (FIG. 6E).
PBMC from SE^+ RA patients or healthy controls were incubated with or without peptides at concentrations of 3 and 30 μg/mL for 5 days, with Brefeldin A (Sigma Aldrich) added for the final 18 hours. Cells were stained for CD3-FITC, CD4-APC/Cy7, CD28-FITC, CXCR5-PerCP/Cy5.5 and CD45RO-PerCP/Cy5.5 (Biolegend), followed by permeabilization and staining for intracellular IL-6-APC and IFN-γ-APC (Biolegend). Data were collected on the Gallios flow cytometer and analysed using Kaluza software (Beckman Coulter).

[5] = tested on: PBMC or SFMC; type: cell-based, human
[6] = RA PBMC, 5 days, Brefeldin-A last 18 hours

With `Cc1ccc(S(=O)(=O)/C=C/C#N)cc1` [Bay11-7082, E3((4-methylphenyl)-sulfonyl)-2-propenenitrile] the “capacity of APC presenting cit-peptide to induce T cell IL-6 production” value [1] was “partially suppressed”.

In the case of `CC(C)C[C@H](NC(=O)[C@H](CC(C)C)NC(=O)[C@@H](NC(=O)[C@@H](N)C(C)C)C(C)C)C(=O)N[C@H](C(=O)N[C@@H](C)C(=O)N[C@H](C(=O)N[C@@H](CCC(=O)O)C(=O)NCC(=O)N[C@@H](CCCNC(N)=O)C(=O)N[C@H](C(=O)N[C@@H](CCCNC(=N)N)C(=O)N[C@H](C(=O)N[C@@H](CC(N)=O)C(=O)N[C@@H](CO)C(=O)N[C@@H](C)C(=O)N[C@@H](Cc1ccc(O)cc1)C(=O)N[C@@H](CCC(N)=O)C(=O)N[C@@H](CC(=O)O)C(=O)N[C@@H](CCCCN)C(=O)O)C(C)C)C(C)C)[C@@H](C)O)C(C)C` [citrullinated aggrecan, VVLLVATEGCitVRVNSAYQDK] (HELM PEPTIDE1{V.V.L.L.V.A.T.E.G.[Cit].V.R.V.N.S.A.Y.Q.D.K}$$$$V2.0; N-terminus and C-terminus assumed), the “solubility in aqueous medium” value [2] is reported as “relatively insoluble in aqueous medium”.

With “QDFIN[Cit]INKLKNS [citrullinated fibrinogen]” the “healthy controls whose PBMC dose-dependently secreted IL-6” value ([3]; 6 SE+ healthy controls) was 3/6, the “cytokine responses to the epitope” value [3] was “robust cytokine production” and the “number of RA patients with positive IL-6 response to this epitope only” value [3] was 0. For the same compound, the “proportion of IL-6+CD4+CD45RO- T cells” value ([4]; 30 μg/ml peptide, no peptide 0.8%) was 2.1%, the “proportion of IL-6+CD4+CD45RO+ T cells” value ([4]; 30 μg/ml peptide, no peptide 2.2%) was 5.3% and the “intra-cellular IFN-γ in CD3+CD4+ T cells relative to medium alone” value [4, 6] was “more”. For the same compound, the “intra-cellular IL-6 in CD3+CD4+ T cells relative to medium alone” value [4, 6] was “more”.

For “QYM[Cit]ADQAAGGLR [citrullinated collagen type II]”, the “number of RA patients with positive IL-6 response to this epitope only” value [3] was 0.

With “SAVRA[Cit]SSVPGVR [citrullinated vimentin 66-78]” the “cytokine responses to the epitope” value [3] was “much weaker cytokine responses”.

In the case of tetanus toxoid, the “Proliferative responses to tetanus toxoid, RA compared with healthy control PBMC” value [5] is reported as “significantly lower”.
